Measurements published in ChEMBL document CHEMBL5465560, “Selectivity Literature for EUbOPEN Chemogenomic Library” (2024).
Each block holds one compound with its values, some of them ahead of it.

Assays:
[1] = target: Tyrosine-protein kinase Lyn (Homo sapiens, UniProt P07948); test: Selectivity interaction (SelectScreen profiling (Invitrogen)) EUB0000607a LYN; settings: at 2 µM
[2] = target: T1, Tyrosine-protein kinase Mer (Homo sapiens) (UniProt Q12866); test: Selectivity interaction (KinomeScan (DiscoverX)) EUB0001619a MERTK; settings: at 1 µM
T1 sequence (whole entry): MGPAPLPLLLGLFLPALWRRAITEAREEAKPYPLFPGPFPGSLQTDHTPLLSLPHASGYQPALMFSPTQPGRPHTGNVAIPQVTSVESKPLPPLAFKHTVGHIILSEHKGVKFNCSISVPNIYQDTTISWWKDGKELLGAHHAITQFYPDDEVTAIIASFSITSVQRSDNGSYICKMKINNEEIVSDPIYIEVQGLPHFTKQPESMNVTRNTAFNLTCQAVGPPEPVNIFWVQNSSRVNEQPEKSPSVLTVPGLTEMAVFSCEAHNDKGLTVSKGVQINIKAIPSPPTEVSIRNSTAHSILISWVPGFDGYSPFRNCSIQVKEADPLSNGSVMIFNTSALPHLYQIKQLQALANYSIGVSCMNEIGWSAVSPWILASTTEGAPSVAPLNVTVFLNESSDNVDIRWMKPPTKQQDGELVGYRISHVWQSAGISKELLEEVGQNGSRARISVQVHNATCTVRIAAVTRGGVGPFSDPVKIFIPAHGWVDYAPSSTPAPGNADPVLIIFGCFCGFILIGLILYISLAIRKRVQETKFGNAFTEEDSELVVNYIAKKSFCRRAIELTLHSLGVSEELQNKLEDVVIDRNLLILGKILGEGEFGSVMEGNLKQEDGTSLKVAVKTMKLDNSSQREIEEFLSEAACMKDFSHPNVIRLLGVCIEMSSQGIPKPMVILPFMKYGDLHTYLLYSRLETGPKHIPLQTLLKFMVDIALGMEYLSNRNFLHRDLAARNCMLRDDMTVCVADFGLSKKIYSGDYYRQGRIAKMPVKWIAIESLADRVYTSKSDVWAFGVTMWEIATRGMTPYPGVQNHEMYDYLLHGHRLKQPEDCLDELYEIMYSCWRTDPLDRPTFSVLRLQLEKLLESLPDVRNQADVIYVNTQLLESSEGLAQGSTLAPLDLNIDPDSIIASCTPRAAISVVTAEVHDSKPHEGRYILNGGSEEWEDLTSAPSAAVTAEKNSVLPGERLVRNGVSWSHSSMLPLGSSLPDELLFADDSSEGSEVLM

[3] = target: T2, NUAK family SNF1-like kinase 2 (Homo sapiens) (UniProt Q9H093); test: Selectivity interaction (KinomeScan (DiscoverX)) EUB0000595a NUAK2; settings: at 10 µM
T2 sequence (whole entry): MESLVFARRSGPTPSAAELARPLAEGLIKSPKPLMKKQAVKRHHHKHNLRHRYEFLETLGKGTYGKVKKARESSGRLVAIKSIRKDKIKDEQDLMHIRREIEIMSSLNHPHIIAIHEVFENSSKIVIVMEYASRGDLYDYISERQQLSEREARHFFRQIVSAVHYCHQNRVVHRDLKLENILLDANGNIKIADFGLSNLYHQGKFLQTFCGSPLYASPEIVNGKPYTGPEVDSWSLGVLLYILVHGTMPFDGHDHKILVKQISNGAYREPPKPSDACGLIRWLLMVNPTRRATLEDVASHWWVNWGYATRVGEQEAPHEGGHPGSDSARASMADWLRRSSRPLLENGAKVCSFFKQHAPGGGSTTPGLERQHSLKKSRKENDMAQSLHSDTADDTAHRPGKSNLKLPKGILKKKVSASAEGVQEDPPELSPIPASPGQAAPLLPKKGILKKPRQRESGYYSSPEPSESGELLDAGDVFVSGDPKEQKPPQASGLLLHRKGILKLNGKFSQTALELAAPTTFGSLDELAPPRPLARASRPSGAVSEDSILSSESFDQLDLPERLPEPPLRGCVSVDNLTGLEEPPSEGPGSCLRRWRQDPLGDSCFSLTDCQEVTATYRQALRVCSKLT

[4] = target: Atypical kinase COQ8A, mitochondrial (Homo sapiens, UniProt Q8NI60); settings: at 10 µM
Chain of Atypical kinase COQ8A, mitochondrial (Q8NI60 163-647 limits assumed): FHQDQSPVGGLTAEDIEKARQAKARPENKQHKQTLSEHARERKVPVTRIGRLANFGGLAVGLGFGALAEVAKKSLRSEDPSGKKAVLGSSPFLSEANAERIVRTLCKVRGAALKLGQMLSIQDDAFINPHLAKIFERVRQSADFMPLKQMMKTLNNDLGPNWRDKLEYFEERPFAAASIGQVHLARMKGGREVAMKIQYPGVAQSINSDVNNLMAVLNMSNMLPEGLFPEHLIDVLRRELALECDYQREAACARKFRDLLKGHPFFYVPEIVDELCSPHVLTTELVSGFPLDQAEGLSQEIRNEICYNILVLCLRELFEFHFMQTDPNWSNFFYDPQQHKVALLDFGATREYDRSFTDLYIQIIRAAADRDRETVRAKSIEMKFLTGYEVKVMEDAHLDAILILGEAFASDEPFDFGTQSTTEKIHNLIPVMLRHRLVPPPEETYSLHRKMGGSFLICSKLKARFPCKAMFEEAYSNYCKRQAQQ

[5] = target: Serine/threonine-protein kinase PAK 3 (Homo sapiens) (UniProt O75914); test: Selectivity interaction (KinomeScan (DiscoverX)) EUB0000229b PAK3; settings: at 10 µM
Chain of Serine/threonine-protein kinase PAK 3 (Homo sapiens) (O75914 whole entry, looked up): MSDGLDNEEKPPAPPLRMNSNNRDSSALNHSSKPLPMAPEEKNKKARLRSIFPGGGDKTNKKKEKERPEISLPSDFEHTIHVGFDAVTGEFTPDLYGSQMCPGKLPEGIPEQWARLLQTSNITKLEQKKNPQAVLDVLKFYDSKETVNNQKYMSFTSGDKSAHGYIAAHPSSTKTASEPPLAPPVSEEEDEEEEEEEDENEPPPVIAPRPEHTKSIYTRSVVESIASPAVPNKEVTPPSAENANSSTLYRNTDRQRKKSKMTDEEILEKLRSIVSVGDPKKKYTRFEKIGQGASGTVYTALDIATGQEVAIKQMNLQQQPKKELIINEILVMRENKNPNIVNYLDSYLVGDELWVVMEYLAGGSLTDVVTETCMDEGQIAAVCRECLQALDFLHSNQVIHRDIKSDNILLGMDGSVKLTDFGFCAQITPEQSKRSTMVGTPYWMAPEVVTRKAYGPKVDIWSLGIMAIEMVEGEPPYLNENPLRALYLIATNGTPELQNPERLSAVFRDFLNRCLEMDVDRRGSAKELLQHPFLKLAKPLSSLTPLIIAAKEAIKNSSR

[6] = target: Serine/threonine-protein kinase 10 (Homo sapiens) (UniProt O94804); test: Selectivity interaction (KinomeScan (DiscoverX)) EUB0001049a STK10; settings: at 1 µM
Chain of Serine/threonine-protein kinase 10 (Homo sapiens) (O94804 whole entry, looked up): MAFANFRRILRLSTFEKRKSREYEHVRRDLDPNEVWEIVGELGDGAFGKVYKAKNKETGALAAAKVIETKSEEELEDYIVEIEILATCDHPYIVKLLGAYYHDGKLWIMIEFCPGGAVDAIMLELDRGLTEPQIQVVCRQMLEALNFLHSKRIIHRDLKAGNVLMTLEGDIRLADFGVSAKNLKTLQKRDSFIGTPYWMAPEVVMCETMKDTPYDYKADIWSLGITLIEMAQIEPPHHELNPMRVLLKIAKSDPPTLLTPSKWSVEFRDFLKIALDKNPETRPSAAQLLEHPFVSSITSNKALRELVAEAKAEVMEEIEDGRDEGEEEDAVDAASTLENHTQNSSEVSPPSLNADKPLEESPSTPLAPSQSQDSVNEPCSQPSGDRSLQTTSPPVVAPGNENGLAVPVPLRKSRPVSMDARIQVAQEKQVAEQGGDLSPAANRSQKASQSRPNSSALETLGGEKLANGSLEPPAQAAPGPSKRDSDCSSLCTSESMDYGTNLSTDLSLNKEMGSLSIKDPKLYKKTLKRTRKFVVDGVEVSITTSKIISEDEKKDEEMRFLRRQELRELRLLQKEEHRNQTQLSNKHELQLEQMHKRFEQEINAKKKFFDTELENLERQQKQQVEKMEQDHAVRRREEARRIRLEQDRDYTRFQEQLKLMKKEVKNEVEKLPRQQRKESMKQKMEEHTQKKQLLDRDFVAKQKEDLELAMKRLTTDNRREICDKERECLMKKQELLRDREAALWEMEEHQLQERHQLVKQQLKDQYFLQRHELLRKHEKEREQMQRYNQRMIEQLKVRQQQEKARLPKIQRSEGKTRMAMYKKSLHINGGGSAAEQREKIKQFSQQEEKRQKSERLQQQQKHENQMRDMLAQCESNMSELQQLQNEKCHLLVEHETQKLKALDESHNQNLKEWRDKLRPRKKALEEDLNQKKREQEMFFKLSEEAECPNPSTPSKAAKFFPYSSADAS

[7] = tested on: Receptor-type tyrosine-protein kinase FLT3 (Homo sapiens), P36888 [UNDEFINED MUTATION]; test: Selectivity interaction (KinomeScan (DiscoverX)) EUB0001049a FLT3; settings: at 1 µM
Chain of Receptor-type tyrosine-protein kinase FLT3 (Homo sapiens), P36888 [UNDEFINED MUTATION] (P36888 whole entry, looked up, change not shown): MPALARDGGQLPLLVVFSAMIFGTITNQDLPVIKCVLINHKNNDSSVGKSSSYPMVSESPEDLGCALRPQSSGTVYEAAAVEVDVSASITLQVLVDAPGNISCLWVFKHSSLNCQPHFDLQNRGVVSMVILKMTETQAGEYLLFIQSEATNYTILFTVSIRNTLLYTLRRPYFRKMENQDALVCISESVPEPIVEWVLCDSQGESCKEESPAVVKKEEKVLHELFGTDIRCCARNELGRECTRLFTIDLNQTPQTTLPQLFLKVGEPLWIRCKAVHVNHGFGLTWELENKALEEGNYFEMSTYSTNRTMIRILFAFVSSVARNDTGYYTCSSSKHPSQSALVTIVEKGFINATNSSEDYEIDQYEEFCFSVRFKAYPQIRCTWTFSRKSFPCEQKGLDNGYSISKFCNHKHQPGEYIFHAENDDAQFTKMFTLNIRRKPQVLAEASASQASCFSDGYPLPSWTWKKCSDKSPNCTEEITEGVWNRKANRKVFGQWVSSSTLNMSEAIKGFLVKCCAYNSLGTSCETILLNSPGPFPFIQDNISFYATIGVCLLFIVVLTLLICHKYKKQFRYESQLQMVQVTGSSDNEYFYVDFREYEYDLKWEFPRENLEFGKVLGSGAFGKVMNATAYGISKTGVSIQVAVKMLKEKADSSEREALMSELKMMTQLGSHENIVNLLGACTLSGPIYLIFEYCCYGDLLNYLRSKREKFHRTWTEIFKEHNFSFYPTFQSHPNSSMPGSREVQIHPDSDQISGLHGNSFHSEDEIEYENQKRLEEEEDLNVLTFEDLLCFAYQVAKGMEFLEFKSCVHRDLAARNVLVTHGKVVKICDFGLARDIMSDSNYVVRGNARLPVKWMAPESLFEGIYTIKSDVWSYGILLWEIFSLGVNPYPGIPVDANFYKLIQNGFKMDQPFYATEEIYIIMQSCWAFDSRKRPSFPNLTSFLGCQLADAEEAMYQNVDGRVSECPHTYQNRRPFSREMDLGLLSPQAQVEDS

[8] = target: T3, Muscle, skeletal receptor tyrosine-protein kinase (Homo sapiens) (UniProt O15146); test: Selectivity interaction (KinomeScan (DiscoverX)) EUB0001049a MUSK; settings: at 1 µM
T3 sequence (whole entry): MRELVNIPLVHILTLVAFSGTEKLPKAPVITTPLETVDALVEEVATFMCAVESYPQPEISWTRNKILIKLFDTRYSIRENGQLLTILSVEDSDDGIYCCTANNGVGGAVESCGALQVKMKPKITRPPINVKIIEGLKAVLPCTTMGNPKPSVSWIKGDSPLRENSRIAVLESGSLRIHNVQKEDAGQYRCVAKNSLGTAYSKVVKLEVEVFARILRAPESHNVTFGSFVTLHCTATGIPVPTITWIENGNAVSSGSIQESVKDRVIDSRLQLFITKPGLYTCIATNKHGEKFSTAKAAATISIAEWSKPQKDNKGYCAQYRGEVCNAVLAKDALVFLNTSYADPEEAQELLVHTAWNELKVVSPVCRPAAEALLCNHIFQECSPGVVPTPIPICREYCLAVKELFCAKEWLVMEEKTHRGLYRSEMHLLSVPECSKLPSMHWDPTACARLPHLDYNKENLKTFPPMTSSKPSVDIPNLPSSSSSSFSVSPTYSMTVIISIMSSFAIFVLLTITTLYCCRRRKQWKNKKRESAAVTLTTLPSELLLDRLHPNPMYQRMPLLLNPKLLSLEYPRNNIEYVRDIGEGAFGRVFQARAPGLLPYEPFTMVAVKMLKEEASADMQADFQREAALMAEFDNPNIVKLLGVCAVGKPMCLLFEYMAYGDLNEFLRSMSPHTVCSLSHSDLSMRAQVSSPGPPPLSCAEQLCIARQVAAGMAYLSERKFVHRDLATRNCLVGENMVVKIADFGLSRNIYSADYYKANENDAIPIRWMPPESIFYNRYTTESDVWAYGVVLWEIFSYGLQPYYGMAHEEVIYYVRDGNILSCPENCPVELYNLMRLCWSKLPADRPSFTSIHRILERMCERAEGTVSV

[9] = target: T2, NUAK family SNF1-like kinase 2 (Homo sapiens); test: Selectivity interaction (KinomeScan (DiscoverX)) EUB0000666a NUAK2; settings: at 10 µM
[10] = target: Serine/threonine-protein kinase SIK1 (Homo sapiens) (UniProt P57059); test: Selectivity interaction (Kinase panel (Carna Biosciences)) EUB0001542aTs SIK1; settings: at 1 µM
Chain of Serine/threonine-protein kinase SIK1 (Homo sapiens) (P57059 whole entry): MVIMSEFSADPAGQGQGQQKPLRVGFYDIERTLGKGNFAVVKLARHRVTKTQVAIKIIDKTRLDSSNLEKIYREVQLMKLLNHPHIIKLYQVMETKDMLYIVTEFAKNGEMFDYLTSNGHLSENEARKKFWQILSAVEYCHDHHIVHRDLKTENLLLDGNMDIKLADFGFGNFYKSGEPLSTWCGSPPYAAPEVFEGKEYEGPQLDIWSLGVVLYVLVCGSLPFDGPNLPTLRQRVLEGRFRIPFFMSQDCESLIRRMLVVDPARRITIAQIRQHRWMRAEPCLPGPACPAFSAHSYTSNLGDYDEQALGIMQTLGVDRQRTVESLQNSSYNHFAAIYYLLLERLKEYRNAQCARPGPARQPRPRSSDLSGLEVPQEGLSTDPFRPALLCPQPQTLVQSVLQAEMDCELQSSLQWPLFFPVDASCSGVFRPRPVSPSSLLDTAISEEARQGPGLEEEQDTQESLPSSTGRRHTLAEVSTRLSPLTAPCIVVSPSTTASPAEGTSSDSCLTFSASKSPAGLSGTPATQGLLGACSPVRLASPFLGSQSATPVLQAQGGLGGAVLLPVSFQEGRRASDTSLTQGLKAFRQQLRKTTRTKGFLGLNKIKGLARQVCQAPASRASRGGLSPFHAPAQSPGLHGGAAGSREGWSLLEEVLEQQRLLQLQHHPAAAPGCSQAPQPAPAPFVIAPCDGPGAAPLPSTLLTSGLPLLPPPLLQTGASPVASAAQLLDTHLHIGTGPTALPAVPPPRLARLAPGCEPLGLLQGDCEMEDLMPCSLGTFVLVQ

Chain of Tyrosine-protein kinase Lyn (P07948 2-512 limits assumed): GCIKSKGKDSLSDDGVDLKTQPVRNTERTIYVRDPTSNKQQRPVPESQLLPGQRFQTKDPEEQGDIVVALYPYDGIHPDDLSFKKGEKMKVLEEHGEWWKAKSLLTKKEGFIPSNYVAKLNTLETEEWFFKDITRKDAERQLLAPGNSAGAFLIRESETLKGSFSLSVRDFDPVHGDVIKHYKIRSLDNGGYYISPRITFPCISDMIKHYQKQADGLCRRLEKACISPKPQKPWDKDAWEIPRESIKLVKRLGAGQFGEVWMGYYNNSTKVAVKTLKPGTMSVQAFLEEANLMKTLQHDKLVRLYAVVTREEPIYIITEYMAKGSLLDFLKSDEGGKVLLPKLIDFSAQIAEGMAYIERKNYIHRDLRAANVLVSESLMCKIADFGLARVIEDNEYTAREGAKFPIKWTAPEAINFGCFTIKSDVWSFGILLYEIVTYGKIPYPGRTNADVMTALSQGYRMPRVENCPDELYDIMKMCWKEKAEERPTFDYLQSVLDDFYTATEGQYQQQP

Structure (SMILES): CNC(=O)Nc1ccc(-c2nc(N3CC4CCC(C3)O4)c3cnn(C4CCC5(CC4)OCCO5)c3n2)cc1
- % of inhibition [1]: 5%

Structure (SMILES): N#Cc1cccc(-c2c[nH]c3ncnc(N4CCOCC4)c23)c1
- % of control [2]: 100%

Structure (SMILES): COCC(=O)NC/C=C/c1ccc2ncnc(Nc3ccc(Oc4ccc(C)nc4)c(C)c3)c2c1 [CP-724714]
- % of control [3]: 100%

Structure (SMILES): Cc1cc([C@@H](C)Nc2ccccc2C(=O)O)c2nc(N3CCOCC3)cc(=O)n2c1 [AZD-6482]
- % of control [4]: 86%

Structure (SMILES): COc1cc(N(C)c2ccnc3ccc(C(F)(F)F)cc23)cc(OC)c1OC
- % binding [5]: 96%

Structure (SMILES): COc1cc(Nc2nc(C)cc(-c3cnn4nc(OC)ccc34)n2)cc(C(F)(F)F)c1
- % of control [6]: 86%
- % of control [7]: 73%
- % of control [8]: 100%

Structure (SMILES): O=C(NOC[C@H](O)CO)c1ccc(F)c(F)c1Nc1ccc(I)cc1F
- % of control [9]: 99%

- % of inhibition [10]: 77%
Structure (SMILES): Cn1cc(Nc2nccc(N3CC4CCC(C3)N4C(=O)[C@@H]3CC3(F)F)n2)cn1
